How the values were obtained:
[1] = tested on: soleus muscle; assay: Wet weight of soleus muscle (absolute, atrophy rate, per body weight) in cast-immobilized rats; format: in vivo, rat; conditions: mean ± SD; for Wet Weight of Soleus Muscle, Immobilized / Wet Weight of Soleus Muscle per Body Weight, Immobilized: immobilized leg; for Wet Weight of Soleus Muscle, Immobilized / Wet Weight of Soleus Muscle, Non-immobilized: 1 wt % CDP-choline feed; for Wet Weight of Soleus Muscle, Non-immobilized / Wet Weight of Soleus Muscle per Body Weight, Non-immobilized: non-immobilized leg
Protocol: (§1) As test animals, 13 female 9-week-old rats of Fischer 344 strain (purchased from SLC Inc.) were used. The rats were preliminarily bred for 3 days in a chamber in which the temperature was adjusted to 22° C. under a bright-dark cycle where 07:00 to 19:00 was the bright period, and access to water and feed was ad libitum. After the preliminary breeding, the rats were divided into two groups, and a control feed was given to a control group consisting of 7 rats while a feed comprising CDP-choline (manufactured by Kyowa Hakko Kogyo Co., Ltd.) having the composition shown in Table 1 (hereinafter referred to as a CDP-choline feed) was given to the other group consisting of 6 rats for one day. Then, the right hind limb of each rat was immobilized in plaster cast under anesthesia with pentobarbital, followed by further feeding for one week under the above conditions. Thereafter, the rats were subjected to analysis with regard to the items shown below. In the test, two muscles, i.e., plantar muscle and soleus muscle located at the lower hind limbs of a rat, were used. Soleus muscle is a representative slow skeletal muscle in lower limbs where 80 to 90% of total muscle fibers are slow muscle fibers, and plantar muscle is a typical fast skeletal muscle where about 95% of total muscle fibers are fast muscle fibers. The rat was killed after body weight measurement, and the soleus muscle and plantar muscle of both the right and left lower hind limbs were quickly excised and washed with a physiological saline solution. After extraneous connective tissues, tendons, nerves, etc. were removed, the muscle wet weights of soleus muscle and plantar muscle were measured. The relative wet weight of muscle immobilized in a cast was determined for each rat based on the wet weight of muscle which was not immobilized in a cast, taken as 100, and the decrease in muscle weight was expressed as the atrophy rate. The wet weight of muscle relative to body weight was calculated by measuring the wet weight of both right and left soleus muscles and plantar muscles and dividing the obtained value by body weight. The wet weight of muscle per body weight excludes the influence of the difference in body weight on each muscle wet weight and reflects the muscle amount per body weight. The wet weight of soleus muscle per body weight is shown in Table 7, and the wet weight of plantar muscle per body weight is shown in Table 8.

[2] = tested on: plantar muscle; assay: Wet weight of plantar muscle (absolute, atrophy rate, per body weight) in cast-immobilized rats; format: in vivo, rat; conditions: mean ± SD; for Atrophy Rate (plantar muscle): decrease of immobilized muscle wet weight relative to non-immobilized taken as 100; for Wet Weight of Plantar Muscle, Immobilized / Wet Weight of Plantar Muscle per Body Weight, Immobilized: immobilized leg
Protocol: as §1

[3] = tested on: soleus muscle; assay: Protein content of soleus muscle in cast-immobilized rats; format: in vivo, rat; conditions: mean ± SD; for Protein Content of Soleus Muscle, Non-immobilized: non-immobilized leg
Protocol: As test animals, 13 female 9-week-old rats of Fischer 344 strain (purchased from SLC Inc.) were used. The rats were preliminarily bred for 3 days in a chamber in which the temperature was adjusted to 22° C. under a bright-dark cycle where 07:00 to 19:00 was the bright period, and access to water and feed was ad libitum. After the preliminary breeding, the rats were divided into two groups, and a control feed was given to a control group consisting of 7 rats while a feed comprising CDP-choline (manufactured by Kyowa Hakko Kogyo Co., Ltd.) having the composition shown in Table 1 (hereinafter referred to as a CDP-choline feed) was given to the other group consisting of 6 rats for one day. Then, the right hind limb of each rat was immobilized in plaster cast under anesthesia with pentobarbital, followed by further feeding for one week under the above conditions. Thereafter, the rats were subjected to analysis with regard to the items shown below. Soleus muscle was finely cut in a 1.15% potassium chloride solution and a homogenate thereof was prepared using a glass homogenizer. After the homogenate was appropriately diluted, its protein content was measured using the Protein Assay Kit of Biorad. A calibration curve was prepared using a 2 mg/ml BSA solution.

[4] = tested on: soleus muscle; assay: Degradation rate of muscle plasma protein of soleus muscle (tyrosine release); format: in vivo, rat; conditions: 2 hours incubation in Krebs-Henseleit bicarbonate buffer, mean ± SD; for Decomposition Rate of Muscle Plasma Protein of Soleus Muscle, Tyrosine, Non-immobilized: non-immobilized leg
Protocol: As test animals, 13 female 9-week-old rats of Fischer 344 strain (purchased from SLC Inc.) were used. The rats were preliminarily bred for 3 days in a chamber in which the temperature was adjusted to 22° C. under a bright-dark cycle where 07:00 to 19:00 was the bright period, and access to water and feed was ad libitum. After the preliminary breeding, the rats were divided into two groups, and a control feed was given to a control group consisting of 7 rats while a feed comprising CDP-choline (manufactured by Kyowa Hakko Kogyo Co., Ltd.) having the composition shown in Table 1 (hereinafter referred to as a CDP-choline feed) was given to the other group consisting of 6 rats for one day. Then, the right hind limb of each rat was immobilized in plaster cast under anesthesia with pentobarbital, followed by further feeding for one week under the above conditions. Thereafter, the rats were subjected to analysis with regard to the items shown below. Weighed soleus muscle was pre-incubated for 30 minutes in a Krebs-Henseleit bicarbonate buffer under aeration with […]. The muscle was then transferred to fresh Krebs-Henseleit bicarbonate buffer, and incubated for 2 hours. The concentration of tyrosine in the buffer was measured, whereby the degradation rate of muscle plasma protein was calculated. The concentration of tyrosine was measured by the fluorescence method of […], et al. using 1-nitroso-2-naphthol [J. Lab. Clin. Med., 50, 733 (1957)] (excitation wavelength: 435 nm; fluorescence wavelength: 545 nm). In order to prepare a calibration curve, a 5 nmol/ml tyrosine solution prepared as a standard solution was appropriately diluted and the relationship between its concentration and fluorescence intensity was plotted. By using the calibration curve thus prepared, the concentration of tyrosine in the buffer tested was determined from its fluorescence intensity.

[5] = tested on: C2C12 cells; assay: Increase of intracellular protein in differentiated C2C12 cells (Methylene Blue method); format: cell-based, mouse; conditions: 3 days; for Increase Rate of Intracellular Protein: control d0 = 0, control d3 = 100
Protocol: C2C12 cells were purchased from Dainippon Pharmaceutical Co., Ltd. Culturing was carried out according to the method of Craig, et al. [Methods in Cell Biology, 52, 85 (1998)]. A medium for growth was prepared by addition of 50 ml of FBS (manufactured by Gibco; Cat. No. 10099-141) and 5 ml of penicillin-streptomycin (manufactured by Gibco; Cat. No. 15140-122) to 500 ml of D-MEM medium (manufactured by Gibco; Cat. No. 11885-084). A medium for differentiation was prepared by addition of 10 ml of inactivated horse serum (manufactured by Gibco; Cat. No. 26050-088) and 5 ml of penicillin-streptomycin to 500 ml of the D-MEM medium. C2C12 cells were seeded and cultured in a 75-cm^2 flask containing 15 ml of the medium for growth and were subcultured before reaching confluence. Culturing was carried out in a CO2 incubator under 5% CO2 concentration and 100% relative humidity. The cell suspension diluted to 5×10^4 cells/ml with the medium for growth was added to each well of type I collagen-coated 96-well plate (Iwaki; Cat. No. 4860-010) in an amount of 100 μl. After confirming that the growth was uniform, the medium was replaced by the differentiation medium. Myogenesis was confirmed under a microscope after culturing for 3 days, and then a CDP-choline-containing PBS (−) solution was added to the medium until its final concentration reached 1 mg/ml or 0.1 mg/ml, followed by further culturing. […] The amount of intracellular protein was measured according to the method of Oliver, et al. [Journal of Cell Science, 92, 513 (1989)]. […] After the solution was appropriately diluted, the absorption at 650 nm was measured using a microplate reader. To determine the rate of increase of intracellular protein, the value of the test group (group to which CDP-choline was added) after culturing for 3 days was calculated based on the value before addition of CDP-choline (do) taken as 0 and the concentration of intracellular protein in the control group (group to which no CDP-choline was added) after culturing for 3 days (d3) taken as 100.

Compound: C[N+](C)(C)CCOP(=O)(O)OP(=O)([O-])OC[C@H]1O[C@@H](n2ccc(N)nc2=O)[C@H](O)[C@@H]1O [CDP-Choline, Cytidine diphosphate choline]
- Atrophy Rate (soleus muscle) ([1]; decrease of immobilized muscle wet weight relative to non-immobilized taken as 100): 21.0 ± 6.5%
- Wet Weight of Soleus Muscle, Immobilized [1]: 61.0 ± 5.2 mg
- Wet Weight of Soleus Muscle, Immobilized ([1]; listed as CDP-choline): no difference in wet weight of muscle
- Wet Weight of Soleus Muscle per Body Weight, Immobilized [1]: 0.428 ± 0.027 mg/g body weight
- Wet Weight of Soleus Muscle per Body Weight, Immobilized ([1]; listed as CDP-choline): no difference
- Wet Weight of Soleus Muscle, Non-immobilized [1]: 77.2 ± 3.9 mg
- Wet Weight of Soleus Muscle, Non-immobilized ([1]; listed as CDP-choline): no difference in wet weight of muscle
- Wet Weight of Soleus Muscle per Body Weight, Non-immobilized [1]: 0.542 ± 0.030 mg/g body weight
- Wet Weight of Soleus Muscle per Body Weight, Non-immobilized ([1]; listed as CDP-choline): no difference
- Atrophy Rate (plantar muscle) [2]: 15.8 ± 5.8%
- Atrophy Rate (plantar muscle) ([2]; listed as CDP-choline): significantly lower
- Wet Weight of Plantar Muscle, Immobilized ([2]; 1 wt % CDP-choline feed): 104.0 ± 2.7 mg
- Wet Weight of Plantar Muscle, Immobilized ([2]; 1 wt % CDP-choline feed, listed as CDP-choline): significantly higher than the control group
- Wet Weight of Plantar Muscle per Body Weight, Immobilized [2]: 0.731 ± 0.029 mg/g body weight
- Wet Weight of Plantar Muscle per Body Weight, Immobilized ([2]; listed as CDP-choline): significantly higher than the control group
- Wet Weight of Plantar Muscle, Non-immobilized ([2]; non-immobilized leg, 1 wt % CDP-choline feed): 123.8 ± 7.4 mg
- Wet Weight of Plantar Muscle per Body Weight, Non-immobilized ([2]; non-immobilized leg): 0.870 ± 0.052 mg/g body weight
- Protein Content of Soleus Muscle, Immobilized ([3]; immobilized leg): 128.4 ± 10.0 mg protein/g tissue
- Protein Content of Soleus Muscle, Non-immobilized [3]: 173.2 ± 15.0 mg protein/g tissue
- Protein Content of Soleus Muscle, Non-immobilized ([3]; listed as CDP-choline): significantly higher than the control group
- Decomposition Rate of Muscle Plasma Protein of Soleus Muscle, Tyrosine, Immobilized ([4]; immobilized leg): 322.1 ± 98.0 nmol/g tissue/2 hours
- Decomposition Rate of Muscle Plasma Protein of Soleus Muscle, Tyrosine, Non-immobilized [4]: 135.5 ± 50.1 nmol/g tissue/2 hours
- Decomposition Rate of Muscle Plasma Protein of Soleus Muscle, Tyrosine, Non-immobilized ([4]; listed as CDP-choline): significantly lower than the control group
- Increase Rate of Intracellular Protein ([5]; CDP-choline 0.1 mg/ml): 134
- Increase Rate of Intracellular Protein ([5]; CDP-choline 1 mg/ml): 141
- Amount of intracellular protein in C2C12 cells ([5]; CDP-choline 0.1 and 1 mg/ml): increased in a CDP-choline concentration dependent manner

Reference: patent US20060189566A1, “Muscle building agent and preventive or remedy for muscle weakening” (priority 2003, published 2006)
